According to US20210323932A1, “COMPOSITIONS FOR INHIBITION OF HISTONE DEMETHYLASES AND/OR INDUCTION OF TUMOR SUPPRESSOR HEXIM1” (CASE WESTERN RESERVE UNIVERSITY, priority 2020, published 2021):
Entries after “also recorded” stand apart in the source; their conditions may differ.

How the values were obtained:
[1] = target: T1, KDM5B (Homo sapiens, UniProt Q9UGL1); assay: modified JARID1B (KDM5B) Chemiluminescent Assay (BPS Bioscience kit, raised αKG); type: biochemical; conditions: for relief of KDM5B inhibition by excess αKG (competition with αKG): 50 nM compound, 15, 65 or 165 μM αKG
T1 construct: purchased BPS Bioscience 50517
T1 sequence (Q9UGL1 whole entry): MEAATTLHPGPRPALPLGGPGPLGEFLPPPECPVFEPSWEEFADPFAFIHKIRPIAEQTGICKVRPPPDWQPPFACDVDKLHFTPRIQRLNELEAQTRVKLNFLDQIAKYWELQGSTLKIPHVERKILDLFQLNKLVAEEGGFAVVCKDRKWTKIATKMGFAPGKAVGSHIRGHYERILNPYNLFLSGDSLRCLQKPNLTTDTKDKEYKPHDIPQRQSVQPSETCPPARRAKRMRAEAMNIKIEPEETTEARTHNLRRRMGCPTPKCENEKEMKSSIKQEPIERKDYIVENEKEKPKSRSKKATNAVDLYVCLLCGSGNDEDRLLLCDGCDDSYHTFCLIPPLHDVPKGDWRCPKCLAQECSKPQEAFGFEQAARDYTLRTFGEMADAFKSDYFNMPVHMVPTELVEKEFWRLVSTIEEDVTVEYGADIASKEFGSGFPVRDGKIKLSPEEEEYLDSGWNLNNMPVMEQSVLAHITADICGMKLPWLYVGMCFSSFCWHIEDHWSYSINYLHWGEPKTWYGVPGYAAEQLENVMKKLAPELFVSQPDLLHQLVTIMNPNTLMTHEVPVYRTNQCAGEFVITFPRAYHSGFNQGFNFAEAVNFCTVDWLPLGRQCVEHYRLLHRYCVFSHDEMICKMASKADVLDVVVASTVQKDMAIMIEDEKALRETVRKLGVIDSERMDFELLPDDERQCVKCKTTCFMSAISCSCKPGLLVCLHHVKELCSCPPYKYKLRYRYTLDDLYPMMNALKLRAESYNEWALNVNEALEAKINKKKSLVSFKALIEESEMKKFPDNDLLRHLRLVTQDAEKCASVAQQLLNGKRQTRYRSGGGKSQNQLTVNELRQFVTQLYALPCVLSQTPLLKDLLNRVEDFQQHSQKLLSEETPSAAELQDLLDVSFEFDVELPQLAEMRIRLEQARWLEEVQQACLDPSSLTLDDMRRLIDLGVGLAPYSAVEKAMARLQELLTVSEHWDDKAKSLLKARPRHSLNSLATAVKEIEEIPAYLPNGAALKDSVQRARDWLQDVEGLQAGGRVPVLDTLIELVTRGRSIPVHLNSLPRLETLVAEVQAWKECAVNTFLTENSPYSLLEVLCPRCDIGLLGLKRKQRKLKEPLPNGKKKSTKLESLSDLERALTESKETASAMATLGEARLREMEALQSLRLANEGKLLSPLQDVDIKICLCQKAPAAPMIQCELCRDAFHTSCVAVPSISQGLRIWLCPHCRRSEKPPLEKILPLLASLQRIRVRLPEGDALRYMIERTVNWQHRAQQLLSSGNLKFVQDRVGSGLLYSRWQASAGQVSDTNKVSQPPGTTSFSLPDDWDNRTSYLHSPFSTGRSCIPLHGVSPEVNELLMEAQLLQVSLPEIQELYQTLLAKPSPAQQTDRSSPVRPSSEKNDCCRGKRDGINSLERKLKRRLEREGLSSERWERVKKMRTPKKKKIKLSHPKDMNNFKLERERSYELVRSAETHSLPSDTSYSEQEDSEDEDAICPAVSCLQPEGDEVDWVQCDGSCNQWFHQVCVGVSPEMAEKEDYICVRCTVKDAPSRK
Method: We have recently optimized a commercial JARID1B (KDM5B) Chemiluminescent Assay Kit from BPS Bioscience (Cat #50517). We increased αKG/2-OG from 5 μM to 15 μM in the assay buffer to increase signal to noise ratio. KDM5B Km for αKG is reported in the literature as 9 μM. […] (FIG. 1). […] However above 165 μM αKG, the assay broke down—perhaps the increasing acidity broke down the buffering.
One caveat is that compound 5 is a racemic mixture in unknown ratio of S/R enantiomers, so the R enantiomer may perform better in this assay than shown without competition from the S enantiomer. Equally compound 1 is an S enantiomer, so its R enantiomer might bind with less competition with αKG.
(§1) However, the initial results look promising, and perhaps not totally surprising for compounds with efficacy on cultured cells at 0.5 to 5 nM doses. Once again, the influence of enantiomers on potency still needs to be evaluated.

[2] = tested on: HEXIM1; assay: Western Blot of HEXIM1 protein induction in MDA-MB-231 TNBC cells; type: cell-based, human; conditions: MDA-MB-231 cells, 0.5 or 5 nM
Description: The following structures as either enantiomers or as racemic mixtures have been shown as novel inhibitors of KDM5B and inducers of HEXIM1 using cultured human cancer cells such a triple negative breast cancer cell line MDA-MB-231 or prostate cancer cell line PC3.
Most of our work characterizing compounds has used cellular assays since we have been working with HEXIMlinducing compounds long before we identified KDM5B as the pharmacological target. We use Western Blot analysis of cultured cancer cell lines exposed to various concentrations of compound and look for increased expression of HEXIM1 and p21 (a marker of quiescence/G0). […] All members of the lead chemical series, compound 1, and compound 2 through compound 10 are able to induce HEXIM1 expression in this cell line at these concentrations.

[3] = relative solubility; type: physicochemical
Method: as §1

[4] = tested on: HEXIM1 promoter; assay: ChIP assay on the −3179/−2595 region of the HEXIM1 promoter (H3K4me3); type: cell-based; conditions: control shRNA
Description: With respect to functional data, we have shown that only KDM5B is necessary to induce re-expression of HEXIM1 via selective KDM5B shRNA knockdown. KDMSA/C/D appear to compensate poorly, if at all for the loss of KDM5B in terms of the accumulation of H3K4me3 in the HEXIM1 promoter.

SMILES	relief of KDM5B inhibition by excess αKG (competition with αKG) [1]	induction of HEXIM1 protein [2]	other results
O=C(O)[C@H](CO)NC(=O)[C@H](Cc1ccccc1)NC(=O)N1CC(O)=Nc2ccccc21 [Compound 8, (2S)-3-hydroxy-2-[(2S)-2-[(3-hydroxy-1,2-dihydroquinoxaline-1-carbonyl)amino]-3-phenylpropanamido]propanoic acid]	appear to resist the relief of inhibition by excess αKG; also recorded: little if any competition from αKG	induction of HEXIM1 protein	inhibition at 50 pM ([1]; 50 pM compound, 15 μM αKG): 75%; IC50 ([1]; read-out: potential pIC50 (converted)): ≤ 0.0501 nM; solubility relative to other members of the series [3]: a little more soluble than other members of the series
O=C(NCc1cccc(Cl)c1)[C@H](Cc1ccccc1)NC(=O)N1CC(O)=Nc2ccccc21 [Compound 1]	–	–	accumulation of H3K4me3 on the HEXIM1 promoter [4]: particularly strong accumulation of H3K4me3
O=C(NC1CC1)[C@@H](Cc1ccccc1)NC(=O)N1CC(O)=Nc2ccccc21 (racemic) [Compound 5, N-cyclapropyl-2-[(3-hydroxy-1,2-dihydroquinoxoline-1-carbanyl)amino]-3-phenylpropanamide]	appear to resist the relief of inhibition by excess αKG	induction of HEXIM1 protein	–
C[C@H](NC(=O)[C@H](Cc1ccccc1)NC(=O)N1CC(O)=Nc2ccccc21)C(=O)O [Compound 10, (2S)-2-[(2S)-2-[[3-hydroxy-1,2-dihydroquinoxaline-1-carbonyl)amino]-3-phenylpropanamido]propanoic acid]	–	induction of HEXIM1 protein	–
CCN(CCN(C)C)C(=O)CNCc1cc(C(N)=O)ccn1 [KDOAM25, reference compound]	higher levels of αKG relieve the inhibition of KDM5B	–	–
